Source: patent US20240293418A1, “COMBINATION THERAPY FOR TREATING CANCER” (Epizyme, Inc., priority 2016, published 2024)
Where two headings read alike, the source gives them in different places.

Experiments:
[1] = test system: U266; assay: 7 day pretreatment + 4-day co-treatment combination model (Cell Titer Glo); conditions: for IC50: read-out: 4-day IC50
From the text: (§1) Assay plates were developed for endpoint analysis using Cell Titer Glo to measure ATP content, which was used as an indicator of cell viability. DMSO concentration was kept constant throughout the assay at less than 0.2% v/v.
(§2) Cell lines: The cell lines MI1.S and U266B1 were obtained from American Type Culture Collection (ATCC; Rockville, MD). The cell lines LP-1, L-363 were obtained from Deutsche Sammlung von Mikroorganismen and Zellkulturen (DSMZ; Braunschweig, Germany) and the cell line KMS-28BM was obtained from Japanese Collection of Research Bioresources Cell Bank (JCRB, Osaka Japan). All cells were maintained as instructed by the supplier and cultures were maintained at 37° C. in a humidified atmosphere and 5% CO2.
(§3) Loewe volumes greater than 1 denoted synergy and volumes <−1 denoted antagonism.

[2] = test system: KMS-28-BM; assay: as above; conditions: for IC50: read-out: 4-day IC50
Method: as §1
(§4) All cells were maintained as instructed by the supplier and cultures were maintained at 37° C. in a humidified atmosphere and 5% CO2.
as §3

[3] = test system: L-363; assay: as above; conditions: for IC50: read-out: 4-day IC50
From the text: as §1, §2, §3

[4] = test system: MM1.S; assay: as above; conditions: read-out: 4-day IC50
From the text: as §1, §2, §3

[5] = test system: LP-1; assay: as above; conditions: for IC50: read-out: 4-day IC50
From the text: as §1, §2, §3

[6] = test system: MM1.S; assay: 7-day co-treatment combination model (Cell Titer Glo); conditions: second agent + tazemetostat, 7 day co-treatment
Method: as §1
(§5) Cell lines: The cell lines MI1.S and U266B1 were obtained from American Type Culture Collection (ATCC; Rockville, MD). […] All cells were maintained as instructed by the supplier and cultures were maintained at 37° C. in a humidified atmosphere and 5% CO2.
as §3

[7] = test system: RPMI-8226; assay: as above; conditions: second agent + tazemetostat, 7 day co-treatment
Method: as §1, §5, §3

[8] = test system: MOLP-8; assay: 7 day pretreatment + 4-day co-treatment combination model (Cell Titer Glo); conditions: second agent + tazemetostat, MOLP-8 t(11;14)
Method: as §1, §4, §3

[9] = test system: Jeko-1; assay: mantle cell lymphoma 7 day co-treatment model; format: cell-based; conditions: for Best CI / Bliss Volume / HSA Volume / Loewe Volume / Synergy Score: second agent + tazemetostat, 7 day co-treatment; for IC50: second agent alone, 7 day co-treatment model
[10] = test system: Granta-519; assay: mantle cell lymphoma 7 day pretreatment + 4-day co-treatment model (Cell Titer Glo)
From the text: (§6) Cells were then co-treated in triplicate with a second compound, 3-fold serially diluted for additional 4 days. After this time, plates were developed for endpoint analysis using Cell Titer Glo to measure ATP content, which is used as an indicator of cell viability.
(§7) A Loewe volume greater than 1 denoted synergy. A Loewe volume between −1 and 1 denoted additivity, and a negative Loewe volume of less than −1, denoted antagonism.

[11] = test system: Maver-1; assay: as above
From the text: as §6, §7

[12] = test system: Jeko-1; assay: as above; conditions: for IC50: Homo sapiens, JeKo-1, 96 h, read-out: Second agent IC50; for Bliss Volume / HSA Volume / Loewe Volume / Synergy Score: second agent + tazemetostat, 7 day pretreatment + 4-day co-treatment, Jeko-1
From the text: as §6, §7

[13] = test system: Granta-519; assay: mantle cell lymphoma 7 day co-treatment model; format: cell-based; conditions: for IC50: Homo sapiens, 168 h, second agent alone, 7 day co-treatment model; for Best CI / Bliss Volume / HSA Volume / Loewe Volume / Synergy Score: second agent + tazemetostat, 7 day co-treatment
[14] = test system: MOLP-8; assay: 7-day co-treatment combination model (Cell Titer Glo); conditions: second agent + tazemetostat; 7-day co-treatment; MOLP-8 t(11;14)
Method: as §1, §4, §3

[15] = test system: LP-1; assay: as above; conditions: second agent + tazemetostat; 7-day co-treatment; LP-1 t(4;14)
Method: as §1, §4, §3

[16] = second agent + tazemetostat, 7 day pretreatment + 4-day co-treatment, U266 t(11;14)
[17] = second agent + tazemetostat, 7 day pretreatment + 4-day co-treatment, KMS-28-BM t(4;14)
[18] = second agent + tazemetostat, 7 day pretreatment + 4-day co-treatment, L-363 t(20;22)
[19] = second agent + tazemetostat, 7 day pretreatment + 4-day co-treatment, LP-1 t(4;14)
[20] = second agent + tazemetostat, 7 day pretreatment + 4-day co-treatment, Granta-519
[21] = second agent + tazemetostat, 7 day pretreatment + 4-day co-treatment, Maver-1

| SMILES | IC50 ([1]; Homo sapiens, U-266, 96 h) | IC50 ([2]; KMS-28BM, 96 h) | IC50 ([3]; Homo sapiens, L-363, 96 h) | IC50 ([4]; Homo sapiens, MM1.S, 96 h) | IC50 ([5]; Homo sapiens, LP-1, 96 h) | combinatorial effect by Loewe volumes [8] | combinatorial effect by Loewe volumes [1, 16] | combinatorial effect by Loewe volumes [2, 17] | combinatorial effect by Loewe volumes [3, 18] | combinatorial effect by Loewe volumes [5, 19] | other results |
| --- | --- | --- | --- | --- | --- | --- | --- | --- | --- | --- | --- |
| Cn1c(CCCC(=O)O)nc2cc(N(CCCl)CCCl)ccc21 [Bendamustine, bendamustine] | > 10000 nM | > 10000 nM | > 10000 nM | > 10000 nM | > 10000 nM | – | – | – | – | – | – |
| Cc1nc2cccc(N)c2c(=O)n1C1CCC(=O)NC1=O (centres unmarked) [CC-122] | – | – | – | – | – | – | – | – | – | – | Loewe volume [6]: 1.93; Loewe volume [7]: 2.29 |
| CC(C)C[C@H](NC(=O)[C@H](CCc1ccccc1)NC(=O)CN1CCOCC1)C(=O)N[C@@H](Cc1ccccc1)C(=O)N[C@@H](CC(C)C)C(=O)[C@@]1(C)CO1 [Carfilzomib, carfilzomib] | 3 nM | 2 nM | 2 nM | 1.07 nM | 3.5 nM | A (Additive) | S (Synergy) | S (Synergy) | A (Additive) | S (Synergy) | – |
| O=P1(N(CCCl)CCCl)NCCCO1 (centres unmarked) [Cyclophosphomide, cyclophosphamide] | > 10000 nM | 1480 nM | > 10000 nM | 1180 nM | 6000 nM | – | – | – | – | – | – |
| COc1cccc2c1C(=O)c1c(O)c3c(c(O)c1C2=O)C[C@@](O)(C(=O)CO)C[C@@H]3O[C@H]1C[C@H](N)[C@H](O)[C@H](C)O1 [Doxorubicin, doxorubicin] | 50 nM | 87 nM | 10 nM | 8 nM | 203 nM | A (Additive) | A (Additive) | A (Additive) | A (Additive) | S (Synergy) | – |
| COc1cc([C@@H]2c3cc4c(cc3[C@@H](O[C@@H]3O[C@@H]5CO[C@@H](C)O[C@H]5[C@H](O)[C@H]3O)[C@H]3COC(=O)[C@H]23)OCO4)cc(OC)c1O [Etoposide, etoposide] | 787 nM | 478 nM | 140 nM | 122 nM | 3000 nM | – | – | – | – | – | – |
| CO[C@H]1C[C@@H]2CC[C@@H](C)[C@@](O)(O2)C(=O)C(=O)N2CCCC[C@H]2C(=O)O[C@H]([C@H](C)C[C@@H]2CC[C@@H](OCCO)[C@H](OC)C2)CC(=O)[C@H](C)/C=C(\C)[C@@H](O)[C@@H](OC)C(=O)[C@H](C)C[C@H](C)/C=C/C=C/C=C/1C [Everolimus, everolimus] | – | – | – | – | – | – | – | – | – | – | Best CI [9]: 1.0; Bliss Volume [9]: −0.060; HSA Volume [9]: 0.084; Loewe Volume [9]: 0.56; Synergy Score [9]: 0.4; IC50 [9]: 0.5 nM; Loewe volume [10, 20]: 5.1; Loewe volume [11, 21]: 6.5; IC50 [12]: 0.7 nM; Bliss Volume [12]: 1.42; HSA Volume [12]: 4.62; Loewe Volume [12]: 3.95; Synergy Score [12]: 4.03 |
| C=CC(=O)N1CCC[C@@H](n2nc(-c3ccc(Oc4ccccc4)cc3)c3c(N)ncnc32)C1 [Ibrutinib, ibrutinib] | – | – | – | – | – | – | – | – | – | – | IC50 [13]: 856 nM; Best CI [13]: 0.38; Bliss Volume [13]: 0.894; HSA Volume [13]: 3.86; Loewe Volume [13]: 4.16; Synergy Score [13]: 2.26; Loewe volume [10, 20]: 5.8; IC50 ([11]; Homo sapiens, Maver1, read-out: Second agent IC50): > 3300 nM; Best CI [11, 21]: 0.08; Bliss Volume [11, 21]: 0.804; HSA Volume [11, 21]: 3.90; Loewe Volume [11, 21]: 3.76; Loewe volume [11, 21]: 3.8; Synergy Score [11, 21]: 2.33 |
| CC(C)C[C@H](NC(=O)CNC(=O)c1cc(Cl)ccc1Cl)B(O)O [Ixazomib, ixazomib] | – | – | – | – | – | A (Additive) | – | – | – | – | combinatorial effect by Loewe volumes [1]: S (key: Antagonism; Synergy; Additive; X: Not Tested); IC50 ([1]; single agent, U266 t(11; 14)): 1.5 nM; combinatorial effect by Loewe volumes [2]: A (key: Antagonism; Synergy; Additive; X: Not Tested); IC50 ([2]; single agent, KMS-28-BM t(4; 14)): 19 nM; combinatorial effect by Loewe volumes [3]: A (key: Antagonism; Synergy; Additive; X: Not Tested); IC50 ([3]; single agent, L-363 t(20; 22)): 47 nM; IC50 ([4]; single agent, MM1.S t(14; 16)): 12 nM; combinatorial effect by Loewe volumes [5]: S (key: Antagonism; Synergy; Additive; X: Not Tested); IC50 ([5]; single agent, LP-1 t(4; 14)): 12 nM |
| Nc1cccc2c1CN(C1CCC(=O)NC1=O)C2=O (centres unmarked) [Lenalidomide, lenalidomide] | > 10000 nM | > 10000 nM | 379 nM | 305 nM | 973 nM | S (Synergy) | S (Synergy) | S (Synergy) | S (Synergy) | S (Synergy) | Best CI [9]: 0.35; Bliss Volume [9]: 1.86; HSA Volume [9]: 2.74; Loewe Volume [9]: 2.87; Synergy Score [9]: 3.68; IC50 [9]: 872 nM; IC50 [12]: 902 nM; Bliss Volume [12]: 2.67; HSA Volume [12]: 4.46; Loewe Volume [12]: 4.35; Synergy Score [12]: 4.01 |
| N[C@@H](Cc1ccc(N(CCCl)CCCl)cc1)C(=O)O [Melphalan, melphalan] | > 10000 nM | 1120 nM | > 10000 nM | 2940 nM | > 10000 nM | – | – | – | – | – | – |
| C[C@]12C=CC(=O)C=C1CC[C@@H]1[C@@H]2[C@@H](O)C[C@@]2(C)[C@H]1CC[C@]2(O)C(=O)CO [Prednisolone, prednisolone] | > 10000 nM | 36 nM | 100 nM | 158 nM | 36 nM | S (Synergy) | A (Additive) | S (Synergy) | A (Additive) | S (Synergy) | – |
| O=C1CCC(N2C(=O)c3ccccc3C2=O)C(=O)N1 (centres unmarked) [Thalidomide, thalidomide] | > 10000 nM | > 10000 nM | > 10000 nM | > 10000 nM | > 10000 nM | – | – | – | – | – | – |
| CC1(C)CCC(CN2CCN(c3ccc(C(=O)NS(=O)(=O)c4ccc(NCC5CCOCC5)c([N+](=O)[O-])c4)c(Oc4cnc5[nH]ccc5c4)c3)CC2)=C(c2ccc(Cl)cc2)C1 [Venetoclax, venetoclax] | – | – | – | – | – | A (Additive) | – | S (Synergy) | – | S (Synergy) | combinatorial effect by Loewe volumes [14]: A (Additive); IC50 [13]: 41 nM; Best CI [13]: 0.43; Bliss Volume [13]: 1.76; HSA Volume [13]: 3.06; Loewe Volume [13]: 2.73; Synergy Score [13]: 3.82; combinatorial effect by Loewe volumes [15]: S (Synergy); IC50 ([10]; Homo sapiens, Granta-519, read-out: Second agent IC50): 58 nM; Best CI [10, 20]: 0.09; Bliss Volume [10, 20]: 3.95; HSA Volume [10, 20]: 7.17; Loewe Volume [10, 20]: 6.72; Synergy Score [10, 20]: 7.23 |
| CC[C@]1(O)C[C@H]2CN(CCc3c([nH]c4ccccc34)[C@@](C(=O)OC)(c3cc4c(cc3OC)N(C=O)[C@H]3[C@@](O)(C(=O)OC)[C@H](OC(C)=O)[C@]5(CC)C=CCN6CC[C@]43[C@@H]65)C2)C1 [Vincristine, vincristine] | 0.5 nM | 1.15 nM | 1 nM | 1 nM | 2.3 nM | – | – | – | – | – | – |
| O=C(CCCCCCC(=O)Nc1ccccc1)NO [Vorinostat, vorinostat] | – | – | – | – | 669 nM | A (Additive) | S (Synergy) | S (Synergy) | A (Additive) | S (Synergy) | – |
